target: LdGSK-3 (Leishmania donovani, UniProt A6N857); experiment: Inhibition of LdGSK-3 with Kinase Glo; assay type: biochemical; conditions: Table S2; 10 µM
Sequence (A6N857 entry or part of it): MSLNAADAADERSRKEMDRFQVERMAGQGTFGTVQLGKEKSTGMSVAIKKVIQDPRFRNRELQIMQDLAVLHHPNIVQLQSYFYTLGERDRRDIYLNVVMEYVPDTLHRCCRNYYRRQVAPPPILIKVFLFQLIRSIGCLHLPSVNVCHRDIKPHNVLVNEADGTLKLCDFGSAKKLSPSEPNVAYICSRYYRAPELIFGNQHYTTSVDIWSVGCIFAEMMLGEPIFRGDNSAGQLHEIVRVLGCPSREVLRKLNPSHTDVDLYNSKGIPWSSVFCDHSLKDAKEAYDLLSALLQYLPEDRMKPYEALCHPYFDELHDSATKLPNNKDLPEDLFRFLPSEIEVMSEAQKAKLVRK
Protocol: Assessment of inhibition of LdGSK-3 with Kinase Glo^TM
The reaction was allowed to proceed for 30 min at 30 °C, then it was incubated at room temperature for another 10 min after addition of Kinase Glo reagents (Promega, Ref. V6712). ATP consumption by LdGSK-3 was measured indirectly through end-point luminescence measurement of each well in a Varioskan Flash microplate reader (Thermo).

`COc1ccc(C(=O)[C@H]2C[C@@H]2CN(Cc2ccccn2)Cc2ccccn2)cc1` [Compound 107] and `COc1cccc(C(=O)[C@H]2C[C@@H]2CN(Cc2ccccn2)Cc2ccccn2)c1` [Compound 153] are within error of each other in “% inhibition @ 10µM (initial screening on LdGSK3)” value (shortened to “% inhibition @ 10µM”): -4.05±3.20% for the first, -5.50±2.15% for the second.

Going from `CCS(=O)(=O)Nc1ccc(C2=NN(C(=O)c3cccs3)C(c3ccccc3OC)C2)cc1` (stereo not drawn) [Compound 108] to `COc1ccc(C2CC(c3ccc(NS(C)(=O)=O)cc3)=NN2C(=O)c2cccs2)cc1OC` (stereo not drawn) [Compound 156], the “% inhibition @ 10µM” value rises from 5.15±1.90% to 11.90±1.75%.

First: COc1ccc(OC)c2c(=O)c(Cc3ccccc3)c(C)[nH]c12 [Compound 110]
Second: COc1ccc(CNc2nsc3ccccc23)cc1OC [Compound 150]
The “% inhibition @ 10µM” value of the first is lower: -0.10±5.35% for the first, 13.55±4.65% for the second.

Compared with `Cc1nc2c(-c3nc(-c4ccc(N)cc4)n[nH]3)cccn2c1C` [Compound 111], `Cc1nc2c(-c3nc(-c4ccccc4N)n[nH]3)cccn2c1C` [Compound 113] is lower in “% inhibition @ 10µM” value: 7.35±4.65% for the first, 1.40±0.50% for the second.

Going from `CCOc1cc(NCCCN2CCN(C)CC2)c2ncccc2c1.Cl.Cl.Cl` [Compound 112] to `CCOc1ccc(Nc2ccc(S(=O)(=O)N3CCN(C)CC3)cc2[N+](=O)[O-])cc1OCC` [Compound 166], the “% inhibition @ 10µM” value rises from 7.50±0.65% to 18.60±2.15%.

Going from `Cc1cn[nH]c1C1CCCN(Cc2nc3ccccc3n2C)C1` (stereo not drawn) [Compound 114] to `CCN(CC)c1nc(N(C)C)nc2c1CN(Cc1ccccc1)CC2` [Compound 146], the “% inhibition @ 10µM” value rises from 2.85±0.45% to 11.85±0.55%.

Going from `Cc1ccc2c(c1)SC(C(=O)Nc1n[nH]c(-c3ccccn3)n1)C2` (stereo not drawn) [Compound 115] to `O=C(Cc1ccc2c(c1)CCC2)Nc1n[nH]c(-c2ccccn2)n1` [Compound 123], the “% inhibition @ 10µM” value rises from 3.20±0.80% to 12.15±3.90%.

First: O=C(Nc1nc(-c2ccccn2)cs1)c1ccc(S(=O)(=O)N2CCCCC2)cc1 [Compound 116]
Second: COc1ccc(S(=O)(=O)Nc2ccc(C(=O)Nc3nc(-c4ccccn4)cs3)cc2)cc1 [Compound 175]
The “% inhibition @ 10µM” value of the first is lower: 7.05±1.35% for the first, 16.65±1.70% for the second.

Compared with `NC(=O)c1ccsc1NC(=O)c1ccc([N+](=O)[O-])s1` [Compound 117], `CC(=O)Nc1ccc(-c2csc(NC(=O)c3ccc([N+](=O)[O-])s3)n2)cc1` [Compound 141] is higher in “% inhibition @ 10µM” value: 6.20±1.15% for the first, 8.55±0.55% for the second.

Compared with `CCc1ccc2nc(NC(=O)c3cc(N4CCOCC4)ccn3)sc2c1` [Compound 118], `CCOc1ccc2nc(NC(=O)c3ccc([N+](=O)[O-])s3)sc2c1` [Compound 145] is lower in “% inhibition @ 10µM” value: 22.80±3.55% for the first, 9.25±0.40% for the second.

Going from `Cc1nn(-c2nc3ccccc3[nH]2)c2c1C(c1ccc(O)cc1)CC(=O)N2` (stereo not drawn) [Compound 120] to `COc1cc(C2SCC(=O)Nc3c2c(C)nn3-c2nc3ccccc3s2)cc(OC)c1O` (stereo not drawn) [Compound 179], the “% inhibition @ 10µM” value rises from 18.15±1.70% to 29.35±2.80%.

First: Cl.NCc1ccc2c(Cl)cc(Cl)c(O)c2n1 [Compound 121]
Second: COc1ccc(Cl)cc1CC(=O)Nc1n[nH]c(-c2ccccn2)n1 [Compound 122]
The “% inhibition @ 10µM” value of the first is higher: 14.80±1.70% for the first, 3.95±2.45% for the second.

Going from `COc1ccc(C2=NCC(CSc3nnc(-c4ccc5c(c4)OCO5)o3)S2)cc1` (stereo not drawn) [Compound 125] to `CN(C)S(=O)(=O)c1cccc(CSc2nnc(-c3ccc4c(c3)OCO4)o2)c1` [Compound 167], the “% inhibition @ 10µM” value rises from 10.60±1.00% to 38.45±1.35%.

`Cl.c1ccc(CNc2cccc3ccncc23)cc1` [Compound 126] and `O=C(COc1nn(-c2ccccc2)c2ncccc12)NCc1ccccc1` [Compound 180] are within error of each other in “% inhibition @ 10µM” value: 17.10±1.10% for the first, 17.50±3.45% for the second.

`CCC(=O)N1N=C(c2ccc3c(c2)CCCC3)Sc2c1ncn2C(=O)CC` [Compound 127] and `COc1ccc2ncc(F)c(CCN3CC[C@@H](NC(=O)c4cc5c(s4)CCC5)[C@@H](O)C3)c2n1.Cl` [Compound 173] are within error of each other in “% inhibition @ 10µM” value: 9.65±3.70% for the first, 8.60±2.90% for the second.

`Cn1ccnc1-c1nc(NCc2ccccc2Cl)cc(C2CC2)n1.O=C(O)C(F)(F)F` [Compound 129] and `Cc1nn(-c2ccccc2)nc1CNC(=O)CN(Cc1ccccn1)Cc1ccccn1.O=C(O)C(F)(F)F` [Compound 144] are within error of each other in “% inhibition @ 10µM” value: 8.90±6.75% for the first, 9.10±1.75% for the second.

First: COc1cc2c(cc1OC)[C@H]1[C@@H](C)c3ccc(OC)c(OC)c3CN1CC2 [Compound 130]
Second: COc1ccc(-c2csc(NC(=O)c3ccc([N+](=O)[O-])s3)n2)cc1OC [Compound 142]
The “% inhibition @ 10µM” value of the first is higher: 12.85±2.80% for the first, 7.95±2.05% for the second.

`COc1ccc(NS(=O)(=O)c2cc(NC(=O)c3ccc([N+](=O)[O-])s3)ccc2OC)cc1` [Compound 131] and `O=C(Nc1cccc(S(=O)(=O)Nc2ccc(Br)cc2)c1)c1ccc([N+](=O)[O-])s1` [Compound 133] are within error of each other in “% inhibition @ 10µM” value: 19.75±3.70% for the first, 15.75±4.25% for the second.

`O=C(Nc1nc(-c2ccc(F)cc2)cs1)c1ccc([N+](=O)[O-])s1` [Compound 132] and `COc1cc(Cl)c(C)cc1NC(=O)c1ccc([N+](=O)[O-])s1` [Compound 176] are within error of each other in “% inhibition @ 10µM” value: 8.15±0.95% for the first, 8.55±1.75% for the second.

`CC(CCc1ccccc1)NC(=O)CN(Cc1ccccn1)Cc1ccccn1.O=C(O)C(F)(F)F` (stereo not drawn) [Compound 134] and `O=C(CN(Cc1ccccn1)Cc1ccccn1)NCc1ccc(-c2csnn2)cc1.O=C(O)C(F)(F)F` [Compound 154] are within error of each other in “% inhibition @ 10µM” value: 5.25±1.70% for the first, 2.50±1.45% for the second.

Going from `COc1ccc(NS(=O)(=O)c2ccc(S(=O)(=O)N(C)C3CCCCC3)cc2)c2ncccc12` [Compound 135] to `COc1ccc(-c2cnc(C)o2)cc1S(=O)(=O)Nc1ccc(C)cc1C` [Compound 160], the “% inhibition @ 10µM” value rises from 6.85±1.55% to 12.60±3.50%.

First: CN(C)c1ccc(N)cc1CN(CC1CCCO1)S(C)(=O)=O (stereo not drawn) [Compound 136]
Second: O=C(CN1CCC2(O)CCCCC2C1c1ccc2c(c1)OCO2)Nc1ccc(Cl)cc1Cl (stereo not drawn) [Compound 143]
The “% inhibition @ 10µM” value of the first is higher: 13.95±3.25% for the first, 2.25±0.35% for the second.

Going from `Cc1ccc(NC(C)C(=O)Nc2ccc(C#N)cc2)cc1S(=O)(=O)N1CCCCC1` (stereo not drawn) [Compound 137] to `O=C(CN1CCN(S(=O)(=O)c2cccc([N+](=O)[O-])c2)CC1)Nc1ccc(Oc2ccccc2)cc1` [Compound 152], the “% inhibition @ 10µM” value falls from 9.35±1.30% to -2.95±1.70%.

Compared with `CCn1c(NC(=O)Cc2ccc(F)cc2)nc2ccccc21` [Compound 138], `Br.Fc1ccc(Nc2nc(-c3ccccn3)cs2)cc1` [Compound 171] is lower in “% inhibition @ 10µM” value: 13.00±3.55% for the first, 4.25±2.30% for the second.

`COc1cc(OC)cc(C(NS(=O)(=O)c2ccc(Cl)c(C(F)(F)F)c2)c2nccn2C)c1` (stereo not drawn) [Compound 139] and `COc1ccc(-c2cc(C)no2)cc1S(=O)(=O)Nc1ccc(C)c(C)c1` [Compound 170] are within error of each other in “% inhibition @ 10µM” value: 15.95±1.70% for the first, 13.20±1.65% for the second.

`O=C(c1cccc(Nc2ncc(-c3ccc4c(c3)OCO4)cn2)c1)N1CCSC1` [Compound 140] and `COc1ccccc1C(=O)Nc1nnc(-c2ccc3c(c2)OCO3)s1` [Compound 162] are within error of each other in “% inhibition @ 10µM” value: 18.20±7.00% for the first, 9.20±3.30% for the second.

First: Cc1cccc(Nc2nc(-c3ccccn3)cs2)n1 [Compound 147]
Second: COc1ccc(Nc2nc(-c3ccccn3)cs2)c(OC)c1 [Compound 157]
The “% inhibition @ 10µM” value of the first is higher: 13.40±2.35% for the first, 4.50±4.45% for the second.

`COCc1cnc2c(c1SCc1c(F)cccc1Cl)c(=O)n(C)c(=O)n2C` [Compound 148] and `CCCc1cc(C(=O)Nc2ncc(-c3cccc(Br)c3)n2C)n[nH]1` [Compound 159] are within error of each other in “% inhibition @ 10µM” value: 9.60±3.10% for the first, 8.80±2.70% for the second.

`Cc1nc(C(=O)Nc2ccc3c(c2)OCO3)nn1-c1ccc(Cl)cc1` [Compound 149] and `COc1ccccc1-n1c(SCC(=O)Nc2ccc3c(c2)OCO3)nc2c(c1=O)SCC2` [Compound 172] are within error of each other in “% inhibition @ 10µM” value: 8.90±2.10% for the first, 5.20±2.65% for the second.

First: O=C(Nc1nc2ccccc2[nH]1)c1c(O)c2cccc3c2n(c1=O)CC3 [Compound 155]
Second: Nc1nc(-c2ccccc2)cc(-c2nc3ncccc3[nH]2)n1 [Compound 169]
The “% inhibition @ 10µM” value of the first is lower: 7.50±1.00% for the first, 32.90±2.70% for the second.

`Cc1cc(C)n(-c2nc(NC(C)C)nc(NC(C)(C)C)n2)n1` [Compound 158] and `CCCCn1nnnc1CSc1nc(C)cc(C)c1C#N` [Compound 161] are within error of each other in “% inhibition @ 10µM” value: 7.85±3.95% for the first, 3.00±3.05% for the second.

Compared with `O=C(c1ccc(Cl)cc1)c1ccc(OC(=O)N2CCOCC2)cc1` [Compound 163], `O=C(CCc1ccc(-c2ccccc2)o1)N1CCN(c2ccc(O)cc2)CC1` [Compound 178] is higher in “% inhibition @ 10µM” value: 3.10±0.70% for the first, 28.65±1.95% for the second.

Compared with `COCCn1c(-c2ccc3c(c2)OCO3)cnc1NCc1ccccc1OC.O=C(O)C(=O)O` [Compound 164], `COCCn1c(-c2ccccc2)cnc1NCc1ccccc1OC.O=C(O)C(=O)O` [Compound 174] is higher in “% inhibition @ 10µM” value: 1.15±1.40% for the first, 6.00±1.50% for the second.

Compared with `CCS(=O)(=O)c1cccc(C(=O)Nc2nc(-c3ccccn3)cs2)c1` [Compound 165], `CCCCN(C(=O)c1ccc(NC(=O)C(C)C)cc1)c1ccccc1` [Compound 168] is higher in “% inhibition @ 10µM” value: 4.70±0.85% for the first, 14.15±2.15% for the second.

For `Nc1nc(-c2ccccn2)nc(-n2nc(-c3ccccc3)cc2N)n1.O=C(O)C(F)(F)F.O=C(O)C(F)(F)F.O=C(O)C(F)(F)F.O=C(O)C(F)(F)F.O=C(O)C(F)(F)F.O=C(O)C(F)(F)F.O=C(O)C(F)(F)F.O=C(O)C(F)(F)F` [Compound 177], the “% inhibition @ 10µM” value was 17.70±1.20%.
